Experimental data from PMC4020900 (International Journal of Nanomedicine, 2014).
Converted amounts (≈) assume the structure as drawn.

What was measured:
[1] = system: Caco-2 cells; assay: Cellular uptake of FITC-conjugated drugs and their niosomes by Caco-2 cells; type: in vitro ADME, human; conditions: 100 μg/mL, 37°C, 6 hours incubation, n=3
[2] = Stability in pH 7.4 HBSS buffer with ascorbic acid; type: physicochemical; conditions: 100 μg/mL, 10 mM ascorbic acid, 37°C, 6 hours
[3] = system: Caco-2 cells; assay: SRB cytotoxicity assay; type: cell-based; conditions: Homo sapiens, Caco-2, 24 h, read-out: IC50 (SRB assay)
[4] = system: Caco-2 cells; assay: Stability and metabolism on incubation with Caco-2 cells; type: in vitro ADME, human; conditions: 100 μg/mL, incubated with Caco-2 cells, pH 7.4 HBSS, 10 mM ascorbic acid, 37°C, 6 hours
[5] = stated in the introduction, method and reference not given; cited from earlier work

- Uptake ± SD [1]: 0.90±0.14 μg/mg protein
- Drug present and unchanged [2]: 86.2%
- Decrease of drug [4]: 13.0%
Structure (SMILES): O=C(O[C@@H]1Cc2c(O)cc(O)cc2O[C@@H]1c1cc(O)c(O)c(O)c1)c1cc(O)c(O)c(O)c1 [EGCG, (−)-epigallocatechin gallate]
- IC50 [3]: 125 ± 3.3 µg/mL (≈ 272 µM)
- Octanol/buffer partition coefficient P [5]: 0.86±0.03
